Measurements from patent US7122529B2, “Compounds that release nitric oxide at controlled rates upon photolysis” (The Johns Hopkins University, priority 2001, dated 2006).
Marks after values point to notes of the source that are not given here.

Legend:
Type in all cases: physicochemical
[1] = Rate of NO release upon photolysis compared with thermal decay of 1 and 20; conditions: for rate of photochemical release of NO versus thermal decomposition of 1 and 20: 10 seconds photolysis, Xenon arc lamp long-pass 324 nm filter, 10 mM phosphate and acetate buffers
Procedure: This example describes the general procedure for the determination of the rate of NO release from compounds 6 and 9 upon photolysis. Stock solutions of compounds 6 and 9 were prepared to be 100 μM in acetonitrile, and of these 15 μL aliquots were diluted into to […] of aqueous solutions at the appropriate pH (10 mM phosphate and acetate buffers). The probe was allowed to equilibrate in the sample solution before 10 seconds of photolysis using a Xenon arc lamp with a long-pass 324 nm filter. The rate of NO release was then monitored over the appropriate time span. For comparison, the thermal decay of both compounds 1 and 20 were recorded under the same conditions as those of the photochemical experiments.
As shown, this pH dependence follows the same pH dependence for the release from authentic samples of diazeniumdiolate 1.

[2] = Electrochemical quantification of NO / diazeniumdiolate released upon photolysis of O2-benzyl diazeniumdiolates
Procedure: Analysis of the above described organic products produced following photolysis of the compounds was studied in argon and oxygen-saturated 90%–99% aqueous acetonitrile. Quantification of NO released upon photolysis was performed electrochemically with an inNO Nitric Oxide Measuring System using an amiNO-2000 probe (Innovative Instruments Inc., Tampa, Fla.). The amiNO-2000 probe was calibrated using ascorbic acid/sodium nitrite before and after NO measurements were conducted. In order to differentiate NO production arising from diazeniumdiolate from non-diazeniumdiolate derived NO, the dependence of diazeniumdiolate decomposition rate on pH was utilized. […] Aqueous solutions at pH 11 of the compounds were irradiated and then analyzed for NO. Any NO detected under these conditions must arise from a non-diazeniumdiolate pathway. For all compounds examined the amount of NO formed from such a pathway was negligible. To liberate NO associated with the photoreleased diazeniumdiolate, solutions were acidified with 1.0 M H2SO4 to a pH of between 2–3. In each case, the yield of NO was determined from a series of measurements following photolysis to a range of percent conversions. […] NO yields determined from these experiment along with the observation that compound 1 dissociates to give 1.5 equivalents of NO were used to derive yields of photoreleased diazeniumdiolates from the compounds studied.
Since Path B is favored with the addition of strong π-donating meta substituents, the dihydroxybenzyl derivative of compound 3, n=0, Y=H, R1=R3=R5=H, R2=R4=OH (O^2-3,5-dihydroxybenzyl substituted diazeniumdiolate) was studied in further detail. Consistent with the expected large effect of oxyanionic meta substitution, when compound 3, n=0, Y=H, R1=R3=R5=H, R2=R4=OH is irradiated (Rayonet, 300 nm) in an aqueous solution of pH 11.2 (containing 1% acetonitrile) to 5–35% conversion, the amount of NO detected corresponded to a yield of photoreleased diazeniumdiolate compound 1 of approximately 92%. A comparison of selected results observed with O^2-substituted diazeniumdiolate derivatives having the backbone of compound 3 is shown in FIG. 1. After photolysis of the compound (t=0 sec) there is no nitric oxide production.

[3] = Quantum yields of photolysis of compounds 2 and 3 (actinometry)
[4] = Quantum yields of photolysis of compounds 6 and 9; conditions: ~20 μM in 90–95% aqueous acetonitrile, below 40% conversion
[5] = Diazeniumdiolate / NO released upon photolysis of compounds 6 and 9 (electrochemical NO probe); conditions: 0.498 μM, 100% conversion; for % NO: Xenon arc lamp with long-pass 324 nm filter, NO liberated by acidification; for % Diazeniumdiolate: pH 12.2, Xenon arc lamp with long-pass 324 nm filter, derived with 1.5 / 1.8 eq NO
Procedure: This example describes a general procedure for the determination of diazeniumdiolate released upon photolysis of compounds 6 and 9. The amiNO-700 probe was calibrated using ascorbic acid/sodium nitrite before and after NO measurements were recorded. Calibration curves were prepared in order to relate current (detected by the instrument) with concentration of NO. Stock solutions of compounds 6 and 9 were prepared to be 100 μM in acetonitrile, and of these 15 μL aliquots were diluted into to 3 mL of a pH 12.2 aqueous solution. The resulting 0.498 μM solutions were photolyzed with a Xenon arc lamp and a long-pass 324 nm filter for lengths of time appropriate to reach 100% conversion (6–7 minutes for most compounds at this concentration). Under these basic conditions any diazeniumdiolate generated photochemically is stable, and neither sodium-1-(N,N-diethylamino)-1-diazen-1-ium-1,2-diolate (compound 1) or sodium-1-(piperidin-1-yl)-diazen-1-ium-1,2-diolate (compound 20) absorbs at wavelengths above 324 nm. No NO was measured electrochemically at this pH, indicating there are no photochemical paths that lead directly to NO. The NO associated with the photochemically generated diazeniumdiolate was liberated by the addition of 10 μL of 1.0 M sulfuric acid (final solution pH's were typically 2–3. Using the calibration curve and the fact that the amount of NO released upon thermal decomposition of compounds 1 and 20 was calculated to be 1.5 and 1.8 eq. respectively, the absolute percentage of diazeniumdiolate generated upon photolysis of compounds 6 and 9 was determined. FIG. 2 depicts the amount of nitric oxide produced upon photolysis from a selection of 1-methylnaphthyl and 2-methylnaphthyl-O^2-substituted diazeniumdiolates having a backbone of compounds 6 and 9.
Compounds 6 and 9 are soluble in 99% aqueous acetonitrile up to 20 μM and are thermally stable indefinitely at pH 4–11, 25° C. at this concentration. Analysis of the products following photolysis (Rayonet, 300 or 350 nm, Xenon arc lamp with a long-pass 324 nm filter) of compounds 6 and 9 in both argon- and oxygen-saturated 99% aqueous acetonitrile is summarized in Table 2 below. Quantification of NO released upon photolysis was performed electrochemically with an inNO Nitric Oxide Measuring System using an ami-700 probe (Innovative Instruments Inc., Tampa, Fla.).

[6] = Absolute amount of NO released from thermal decomposition of diazeniumdiolates 1 and 20; conditions: 0.15–0.66 μM in aqueous solution pH 12.2, acidified with 1.0 M sulfuric acid
Procedure: Determination of the absolute amount of NO released from the thermal decomposition of sodium-1-(N,N-diethylamino)-diazen-1-ium-1,2-diolate compound 1, and sodium-1-(piperidin-1-yl)-diazen-1-ium-1,2-diolate compound 20.
Stock solutions of both compounds 1 and 20 were prepared to be 100 μM in aqueous solution at pH=12.2. A series of μL aliquots of the stock solution were diluted into 3 mL of aqueous solution at pH=12.2 resulting in an array of concentrations from 0.15–0.66 μM. The probe was allowed to equilibrate in the sample solutions before the addition of 10 μL of 1.0 M sulfuric acid. The final concentration of NO in solution after complete decomposition was determined by the calibration curve, and a linear plot of NO released vs. initial concentration was obtained. By this method it was determined that compounds 1 and 20 release 1.5 and 1.8 eq. of NO respectively.

[7] = Lifespan of diazeniumdiolate 1 as a function of pH; conditions: room temperature
[8] = H2O/CH3CN 99/1, photolysis 300 nm, based on percent reactant converted, NO measured and 1.5 eq NO per diazeniumdiolate 1, estimated error ±5%
[9] = solvent H2O/CH3CN 0/100, photolysis 254 nm
[10] = solvent H2O/CH3CN 0/100, photolysis 300 nm
[11] = solvent H2O/CH3CN 99/1, photolysis 254 nm
[12] = solvent H2O/CH3CN 99/1, photolysis 300 nm

With `COc1cc2ccccc2cc1/C=C/CON=[N+]([O-])N1CCCCC1` the “rate of photochemical release of NO versus thermal decomposition of 1 and 20” value [1] was “consistent with the known thermal decays”.
With `CCN(CC)[N+]([O-])=NOCc1cccc(OC)c1` [3 (R2 = MeO, R4 = H), O^2-(3-methoxybenzyl)-1-(N,N-diethylamino)-diazen-1-ium-1,2-diolate] the “% Diazeniumdiolate” value [2, 8] was 6%.
In the case of `CCN(CC)[N+]([O-])=NOCc1cccc(N(C)C)c1` [3 (R2 = NMe2, R4 = H), O^2-(3-dimethylaminobenzyl)-1-(N,N-diethylamino)-diazen-1-ium-1,2-diolate], the “Quantum Yield” value [3, 9] is reported as 0.60, the “Quantum Yield” value [3, 10] is reported as 0.17 and the “Quantum Yield” value [3, 11] is reported as 0.25. For the same compound, the “Quantum Yield” value [3, 12] was 0.04 and the “% Diazeniumdiolate” value [2, 8] was 35%.
In the case of `CCN(CC)[N+]([O-])=NOCc1cc(OC)cc(OC)c1` [3 (R2 = R4 = MeO), O^2-(3,5-dimethoxybenzyl)-1-(N,N-diethylamino)-diazen-1-ium-1,2-diolate], the “Quantum Yield” value [3, 9] is reported as 0.35, the “Quantum Yield” value [3, 11] is reported as 0.17 and the “% Diazeniumdiolate” value [2, 8] is reported as 10%.
For `CCN(CC)[N+]([O-])=NOCc1cc(N(C)C)cc(N(C)C)c1` [3 (R2 = R4 = NMe2), O^2-(3,5-bis-dimethylaminobenzyl)-1-(N,N-diethylamino)-diazen-1-ium-1,2-diolate], the “Quantum Yield” value [3, 9] was 0.53, the “Quantum Yield” value [3, 10] was 0.18 and the “Quantum Yield” value [3, 11] was 0.26. The “Quantum Yield” value [3, 12] was 0.05 and the “% Diazeniumdiolate” value [2, 8] was 47%.
With `CCN(CC)[N+]([O-])=NOCc1cc(O)cc(O)c1` [3 (R2 = R4 = OH), O^2-(3,5-dihydroxybenzyl)-1-(N,N-diethylamino)-diazen-1-ium-1,2-diolate] the “Quantum Yield” value [3, 12] was 0.87 and the “% Diazeniumdiolate” value ([2]; H2O/CH3CN 99/1, photolysis 300 nm at pH 11.2, 5–35% conversion) was 92^d %.
With `CCN(CC)[N+]([O-])=NOCc1cccc2ccccc12` [6 (n = 0, Y = R1–R7 = H), O^2-(1-naphthylmethyl)-1-(N,N-diethylamino)-1-diazen-1-ium-1,2-diolate] the “Quantum Yield” value ([4]; 300 nm (rayonet reactor)) was 0.01^a, the “% NO” value [5] was 1.5% and the “% Diazeniumdiolate” value [5] was 1%.
In the case of `CCN(CC)[N+]([O-])=NOC/C=C/c1cccc2ccccc12` [6 (n = 1, Y = R1–R7 = H)], the “Quantum Yield” value ([4]; 300 nm (rayonet reactor)) is reported as 0.12^a, the “% NO” value [5] is reported as 37.5% and the “% Diazeniumdiolate” value [5] is reported as 25%.
For `CCN(CC)[N+]([O-])=NOCc1cc2ccccc2cc1OC` [9 (n = 0, Y = R1, R3–R7 = H, R2 = OMe), O^2-(3-methoxy-2-naphthylmethyl)-1-(N,N-diethylamino)-diazen-1-ium-1,2-diolate], the “Quantum Yield” value ([4]; 300 nm (rayonet reactor)) was 0.02^a, the “% NO” value [5] was 30% and the “% Diazeniumdiolate” value [5] was 20%. The “% Diazeniumdiolate” value ([5]; listed as 9 (where n=0, Y=R1, R3–R7=H, R2=OMe, X=diethylamino)) was 50%.
With `CCN(CC)/[N+]([O-])=N/[O-].[Na+]` [Compound 1, sodium-1-(N,N-diethylamino)-diazen-1-ium-1,2-diolate] the “NO released upon thermal decomposition” value [6] was 1.5 eq, the lifespan ([7]; pH 3) was “several seconds” and the lifespan ([7]; pH 11) was “several hours”. For the same compound, the “rate of release of nitric oxide from photochemically generated diazeniumdiolate” value ([1]; FIG. 5, varied pH) was “pH dependent”.
For `[Na+].[O-]/N=[N+](\[O-])N1CCCCC1` [Compound 20, sodium-1-(piperidin-1-yl)-diazen-1-ium-1,2-diolate], the “NO released upon thermal decomposition” value [6] was 1.8 eq.
With `CCN(CC)[N+]([O-])=NOC/C=C/c1cc2ccccc2cc1OC` [O^2-(3-(3-methoxy-2-naphthyl)-E-2-propenyl)-1-(N,N-diethylamino)-diazen-1-ium-1,2-diolate] the “rate of photochemical release of NO versus thermal decomposition of 1 and 20” value [1] was “consistent with the known thermal decays” and the “% Diazeniumdiolate” value [5] was 50%.
In the case of `CCN(CC)[N+]([O-])=NOC/C=C/c1cccc2c(OC)ccc(OC)c12` [O^2-(3-(5,8-dimethoxy-1-naphthyl)-E-2-propenyl)-1-(N,N-diethylamino)-diazenen-1-ium-1,2-diolate], the “Quantum Yield” value ([4]; 355 nm (ND:YAG laser)) is reported as 0.66^b, the “% NO” value [5] is reported as 143% and the “% Diazeniumdiolate” value [5] is reported as 95%.
In the case of `CCN(CC)[N+]([O-])=NOCc1cccc2c(OC)ccc(OC)c12` [O^2-(5,8-dimethoxy-1-naphthylmethyl)-1-(N,N-diethylamino)-diazen-1-ium-1,2-diolate], the “Quantum Yield” value ([4]; 355 nm (ND:YAG laser)) is reported as 0.12^b, the “% NO” value [5] is reported as 60% and the “% Diazeniumdiolate” value [5] is reported as 40%.
With `CCN(CC)[N+]([O-])=NOCc1ccc2c(OC)ccc(OC)c2c1` [O^2-(5,8-dimethoxy-2-naphthylmethyl)-1-(N,N-diethylamino)-diazen-1-ium-1,2-diolate] the “Quantum Yield” value ([4]; 355 nm (ND:YAG laser)) was 0.05^b, the “% NO” value [5] was 51% and the “% Diazeniumdiolate” value [5] was 34%.
